{"source": "patent US7172749B2", "about": "“Radiolabeled irreversible inhibitors of epidermal growth factor receptor tyrosine kinase and their use in radioimaging and radiotherapy” (priority 2001, dated 2007)", "key": {"EGFR-TK": {"target": "EGFR-TK (Homo sapiens, UniProt P00533)", "sequence (P00533 25-1210)": "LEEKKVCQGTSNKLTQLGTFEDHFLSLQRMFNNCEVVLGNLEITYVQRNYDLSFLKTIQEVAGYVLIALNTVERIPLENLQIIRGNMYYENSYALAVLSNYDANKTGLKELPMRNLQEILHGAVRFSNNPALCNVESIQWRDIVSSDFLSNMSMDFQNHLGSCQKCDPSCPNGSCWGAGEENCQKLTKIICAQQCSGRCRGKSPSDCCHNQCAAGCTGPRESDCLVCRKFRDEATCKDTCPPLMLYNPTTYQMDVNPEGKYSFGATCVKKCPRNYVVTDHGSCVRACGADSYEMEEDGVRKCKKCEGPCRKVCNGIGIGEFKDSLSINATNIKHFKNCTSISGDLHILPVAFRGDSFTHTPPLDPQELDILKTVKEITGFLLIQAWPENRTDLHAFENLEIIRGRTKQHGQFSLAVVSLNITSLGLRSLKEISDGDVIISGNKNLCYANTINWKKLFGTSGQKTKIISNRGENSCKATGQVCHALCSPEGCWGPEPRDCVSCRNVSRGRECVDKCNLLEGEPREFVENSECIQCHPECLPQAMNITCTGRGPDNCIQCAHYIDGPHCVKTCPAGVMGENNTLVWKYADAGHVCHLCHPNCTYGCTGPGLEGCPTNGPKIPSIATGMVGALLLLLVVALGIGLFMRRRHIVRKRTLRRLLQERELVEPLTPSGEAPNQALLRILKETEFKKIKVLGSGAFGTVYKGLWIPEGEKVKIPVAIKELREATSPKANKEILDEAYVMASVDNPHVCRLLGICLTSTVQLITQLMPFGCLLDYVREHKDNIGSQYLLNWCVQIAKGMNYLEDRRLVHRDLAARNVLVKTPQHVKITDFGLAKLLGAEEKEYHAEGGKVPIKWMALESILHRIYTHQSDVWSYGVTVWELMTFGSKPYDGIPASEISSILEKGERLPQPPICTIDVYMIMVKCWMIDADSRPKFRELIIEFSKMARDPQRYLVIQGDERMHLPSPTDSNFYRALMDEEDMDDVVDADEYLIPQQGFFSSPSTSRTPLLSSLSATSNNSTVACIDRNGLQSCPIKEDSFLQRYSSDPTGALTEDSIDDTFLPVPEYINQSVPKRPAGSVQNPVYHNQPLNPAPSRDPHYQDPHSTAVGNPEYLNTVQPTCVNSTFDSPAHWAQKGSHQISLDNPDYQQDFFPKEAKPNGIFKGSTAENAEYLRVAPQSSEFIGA", "experiment": "biochemical", "details": "3 μM ATP", "protocol": "All the following incubations were performed at room temperature and with constant shaking. […] The final volume for each well was 150 μl.\nAfter removing the unbound m108, the plate was washed and PBS containing 5% milk (1% fat) was added for the blocking (25 minutes).\nOne aliquot of A431 cell lysate was thawed and added to the plate.\nAfter 25 minutes, and without washing the plate, ATP/MnCl2 solution was added in each well. The final concentration was 3 μM ATP/5 mM MnCl2. In this step the temperature was kept at 26° C. and the plate was under constant shaking. The incubation with ATP/MnCl2 was for 5 minutes.\nThen, to stop the phosphorylation reaction, EDTA was added (pH 8, final concentration in each well 20 mM) and after 1 minute all the plate was washed.\nAfterward, polyclonal anti-phosphotyrosine serum (Sugen, Inc.) was added (dilution of antibody in TBST containing 5% milk). The incubation was for 45 minutes."}, "[1]": {"target": "EGFR autophosphorylation in intact A431 cells (Homo sapiens, UniProt P00533)", "sequence (P00533 25-1210)": "as above", "experiment": "EGFR autophosphorylation inhibition rate measurements in intact A431 cells", "type": "cell-based", "details": "30 nM inhibitor", "protocol": "A431 cells (10^6) were seeded in 6-well plates and grown to 60–80% confluence in DMEM (high glucose) containing 10% fetal calf serum (FCS) and antibiotics at 37° C.\nAfter the incubation, the medium was replaced with an inhibitor/FCS-free medium, the cells were kept at 37° C. for either 1 or 8 hours, stimulated thereafter with EGF and lysated as described hereinabove. The protein determination assay was then performed once with n=1 for each time point of the 1 hour post-incubation set of cells left, and with n=2 (for each time point) for the 8 hours post-incubation set of cells.\nThe strips were then washed (3×15 minutes) with fading solution (20% MeOH, 7% acetic acid) and dried.\nFor visualization of molecular weight bands, the membrane was immersed in Ponceau reagent (0.05% Ponceau, 5% acetic acid) for a few minutes, and then washed twice with TTN (10 mM Tris pH 7.4, 0.2% TWEEN 20, 170 mM NaCl) and once with water. The membrane was blocked overnight in TTN containing 5% milk (1% fat) (blocking TTN) and incubated for 90 minutes with PY20 antiphosphotyrosine antibody (Santa Cruz Biotechnology Inc., Santa Cruz, USA) diluted 1:2,000 in blocking TTN."}, "[2]": {"target": "EGFR-TK autophosphorylation in intact A431 cells (Homo sapiens, UniProt P00533)", "sequence (P00533 25-1210)": "as above", "experiment": "cell-based", "procedure": "Autophosphorylation Inhibition Experiments in Intact A431 Cells:\nA431 cells (10^6) were seeded in 6-well plates and grown to 60–80% confluence in DMEM (high glucose) containing 10% fetal calf serum (FCS) and antibiotics at 37° C. The cells were then exposed to serum-free medium, at 37° C., for 18 hours.\nIrreversibility assay: Variable concentrations of the inhibitor, ranging from 0.05 nM to 50 nM, were added to A431 cells for 2 hours incubation. The inhibitor was diluted in vehicle/DMSO and the final concentration of DMSO was 0.05% in each well). The medium was replaced thereafter with an inhibitor/FCS-free medium and the cells were left for either 2 or 8 hours, at 37° C. During the 8 hours period, the medium was changed three more times. After the post-incubation period, the cells were stimulated with EGF (20 ng/ml) for 5 minutes and then washed with PBS. Whole-cell lysates were obtained by scraping the cells into the well with 0.4 ml of Leammli buffer (10% glycerol, 3% sodium dodecyl sulfate, 5% b-mercaptoethanol, 50 mM Tris pH 6.8) that contained 0.001% bromophenol blue, and boiling for 5 minutes.\nWestern blots: Identical protein amounts from each lysate sample were loaded onto polyacrylamide gel (6% or 10%), separated by electrophoresis (Hoefer Pharmacia Diotech Inc., San Francisco, USA) and transferred to nitrocellulose membrane (power supply: EPS 500/400, Amersham Pharmacia Biotech; nitrocellulose extra blotting membranes: Sartorius A G, Goettingen, Germany). A standard high molecular weight solution was loaded as a reference. For visualization of molecular weight bands, the membrane was immersed in Ponceau reagent (0.05% Ponceau, 5% acetic acid) for a few minutes, and then washed twice with TTN (10 mM Tris pH 7.4, 0.2% TWEEN 20, 170 mM NaCl) and once with water. The membrane was blocked overnight in TTN containing 5% milk (1% fat) (blocking TTN) and incubated for 90 minutes with PY20 antiphosphotyrosine antibody (Santa Cruz Biotechnology Inc., Santa Cruz, USA) diluted 1:2,000 in blocking TTN. The membrane was then washed with TTN (3×5 minutes), incubated for 90 minutes with a horseradish peroxidase-conjugated secondary antibody (Goat anti-mouse IgG H+L, Jackson ImResearch Laboratories, Inc, diluted 1:10,000 in blocking TTN), and finally washed again with TTN (3×5 minutes). The membrane was incubated in a luminol-based solution (1 minute, 0.1 M Tris pH 8.5, 250 μM luminol, 400 μM p-cumaric acid, 0.033% H2O2) and visualized using chemiluminescent detection.\nQuantification of the EGFR-P (protein) bands density obtained was performed using Adobe Photoshop 5.0ME and NIH image 1.16/ppc programs."}, "A431 tumor [3]": {"system": "A431 tumor", "experiment": "Positron Emission Tomography studies in tumor bearing nude rats", "type": "in vivo, rat", "details": "for bladder excretion (PET coronal views): FIG. 12", "protocol": "(§1) WAG rnu/rnu male rats (300–400 grams) were injected s.c. in the left or right hind limb, or in the neck, with A431 cells (1×10^7 in 200 μl sterile PBS). Tumor growth was monitored every 2–3 days by calipers. One to two weeks after inoculation, the rats were ready to be used in the following in-vivo biodistribution, metabolic and PET studies. Tumor mass ranging between 2 and 3 grams were used in these experiments.\nPositron Emission Tomography studies: Preliminary dynamic PET scans were performed on a Positron Corporation HZL/R scanner (intrinsic spatial resolution: in-plane 5.8 mm, axial 6.3 mm). Rats were anaesthetized with pentothal (85 mg/Kg) and placed supine on a flat polystyrene foam support with feet taped to the support, so as to minimize movements. […] The PET data were normalized for variations in detector sensitivity, and corrected for wobble, randoms, scatter and deadtime. Attenuation correction was applied using the measured transmission scan data. PET images of the Posicam system (Positron Corporation) were reconstructed by filtered back-projection using a Butterworth filter (cut-off 0.2 cycles/mm, order 10). […] These experiments were conducted with the same rats, two days after the first set of experiments."}, "A431 tumor [4]": {"system": "A431 tumor", "experiment": "Biodistribution in tumor (A431) bearing rats", "type": "in vivo, rat", "details": "for tumor/blood ratios: data not shown; for course of tumor uptake with time / tumor uptake: tumor (A431) bearing rats", "protocol": "as §1, with “experiments. Biodistribution: […] Animals were sacrificed at specific time points (between 0 and 1 hour) by means of CO2 asphyxiation. Blood and certain organs and tissues including tumors were collected or excised, counted in a gamma-counter and weighed. % ID/organ, % ID/gram of tissue and tissue/blood uptake ratios were calculated.” for “experiments.”"}, "[5]": {"experiment": "Biological stability (metabolism) in blood, liver and tumor of rats", "type": "in vivo, rat", "protocol": "as §1, with “experiments. Biological Stability: […] In general, control rats were injected with the radiolabeled compounds and sacrificed at several time points. […] Ether was then added and the samples were counted in a gamma-counter. Blood, homogenized liver and tumor samples were extracted and the extracted fractions were measured for activity in a gamma-counter, spotted onto TLC, and the radioactivity was detected with phosphor imaging plates.” for “experiments.”"}, "A431 cells": {"system": "A431 cells", "experiment": "Specific binding measurements in intact A431 cells", "design": "species or system human", "protocol": "Specific Binding Measurements in Intact A431 Cells: […] After incubation, cells were harvested with a cell harvester (Brandel […], model […], Brandel, Gaithersburg, Md., USA) and were counted in a gamma-counter (1480 WizardTM 3''). The specific binding of the radiolabeled inhibitor was calculated by subtracting the radioactivity level of cells pre-incubated with the non-labeled inhibitor from the radioactivity level of cells pre-incubated with the vehicle only."}}, "note": "Where two headings read alike, the source gives them in different places.", "data": [{"smiles": "C=CC(=O)Nc1ccc2ncnc(Nc3cc(Cl)c(Cl)cc3F)c2c1", "note": "[Compound 3, N-{4-[(3,4-dichloro-6-fluorophenyl)amino]quinazoline-6-yl}acrylamide]", "values": [{"measurement": "IC50", "setting": "EGFR-TK; IC50app of an exemplary dose-response autophosphorylation inhibition curve, single exemplary curve (FIG. 1 / FIG. 5), r2 0.995", "value": 0.051, "unit": "nM"}, {"measurement": "IC50", "setting": "EGFR-TK; apparent IC50 average (IC50app), EGFR-TK autophosphorylation, average of 4 independent dose-response curves (n=4), spread ±0.016", "value": 0.042, "unit": "nM"}, {"measurement": "inhibition of EGFR autophosphorylation", "setting": "[1]; 9 minutes incubation time, 1 hour post-incubation (FIG. 4), compared with the 80% inhibition of FIG. 3", "value": "same effect"}, {"measurement": "inhibition at 0.03 µM", "setting": "[1]; A-431, 10 minutes incubation time, 8 hours post-incubation (FIG. 3)", "value": 80, "unit": "%"}, {"measurement": "inhibition at 0.0005 µM", "setting": "[2]; A-431, read-out: inhibition of EGFR autophosphorylation, 0.5 nM inhibitor, 2 h incubation, 2 hours in inhibitor/FCS-free media", "value": "~35", "unit": "%"}, {"measurement": "inhibition at 0.005 µM", "setting": "[2]; A-431, read-out: inhibition of EGFR autophosphorylation, 5 nM inhibitor, 2 h incubation, 2 hours in inhibitor/FCS-free media", "value": 40, "unit": "%"}, {"measurement": "inhibition at 0.05 µM", "setting": "[2]; A-431, read-out: inhibition of EGFR autophosphorylation, 50 nM inhibitor, 2 h incubation, 2 hours in inhibitor/FCS-free media", "value": "~100", "unit": "%"}, {"measurement": "inhibition at 0.05 µM", "setting": "[2]; A-431, read-out: inhibition of EGFR autophosphorylation, 50 nM inhibitor, 2 h incubation, 8 hours post-incubation", "value": "~97", "unit": "%"}]}, {"smiles": "OC[C@H]1O[C@@H](O)[C@H]([18F])[C@@H](O)[C@@H]1O", "note": "[FDG, reference compound]", "values": [{"measurement": "bladder excretion (PET coronal views)", "setting": "A431 tumor [3]", "value": "excreted in the bladder in great quantities"}]}, {"smiles": "C=CC(=O)Nc1ccc2ncnc(Nc3cc(Cl)c(Cl)cc3F)c2c1", "note": "[carbon-11 labeled Compound 3, carbon-11 labeled N-{4-[(3,4-dichloro-6-fluorophenyl)amino]quinazoline-6-yl}acrylamide]", "values": [{"measurement": "tumor/blood ratios", "setting": "A431 tumor [4]; 15 minutes post administration", "value": 0.09, "unit": "% ID/gram"}, {"measurement": "tumor/blood ratios", "setting": "A431 tumor [4]; 30 minutes post administration", "value": 0.05, "unit": "% ID/gram"}, {"measurement": "course of tumor uptake with time", "setting": "A431 tumor [4]", "value": "decreased with time"}, {"measurement": "tracer remaining intact in blood", "setting": "[5]; 15 minutes post injection", "value": 20, "unit": "%"}, {"measurement": "metabolites in liver and blood (TLC)", "setting": "[5]; 30 minutes post injection, tumor bearing rats", "value": "detected"}, {"measurement": "tracer remaining intact in blood", "setting": "[5]; 45 minutes post injection", "value": "no tracer was remained"}]}, {"smiles": "CN(C)CC=CC(=O)Nc1ccc2ncnc(Nc3cc(Cl)c(Cl)cc3F)c2c1", "note": "[carbon-11 labeled Compound 4, carbon-11 labeled N-{4-[(3,4-dichloro-6-fluorophenyl)amino]quinazoline-6-yl}-4-(dimethylamino)-2-butenamide]", "values": [{"measurement": "increase of specific binding as compared to carbon-11 labeled Compound 3", "setting": "A431 cells; A431 cells", "value": 10, "unit": "%"}, {"measurement": "specific binding to A431 cells", "setting": "A431 cells; carbon-11 labeled tracer, non-specific binding from cells pre-incubated with non-labeled inhibitor", "value": 78, "unit": "%"}, {"measurement": "tumor uptake", "setting": "A431 tumor [4]; 15 minutes post-administration", "value": 0.25, "unit": "% ID/gram"}, {"measurement": "tumor uptake", "setting": "A431 tumor [4]; 30 minutes post-administration", "value": 0.24, "unit": "% ID/gram"}, {"measurement": "course of tumor uptake with time", "setting": "A431 tumor [4]", "value": "remained constant"}, {"measurement": "course of intact tracer in blood with time", "setting": "[5]; 15 to 45 minutes post injection", "value": "no substantial reduction with time"}, {"measurement": "tracer remaining intact in blood", "setting": "[5]; 15 minutes post injection", "value": 60, "unit": "%"}, {"measurement": "metabolites (TLC)", "setting": "[5]; 60 minutes post injection, tumor bearing rats", "value": "no metabolites"}, {"measurement": "PET visualization of the tumor", "setting": "A431 tumor [3]; 250 μCi via jugular vein, dynamic scan", "value": "visualized throughout a 1-hour scan"}, {"measurement": "bladder excretion (PET coronal views)", "setting": "A431 tumor [3]", "value": "slower and minimal bladder excretion"}, {"measurement": "specific binding of radiolabeled inhibitor in tumor", "setting": "A431 tumor [3]; PET, alone versus blocked with non-labeled compound", "value": 50, "unit": "%"}, {"measurement": "decrease of liver activity uptake", "setting": "A431 tumor [3]; during one hour scanning time", "value": 25, "unit": "%"}, {"measurement": "course of activity uptake in the tumor", "setting": "A431 tumor [3]; during the first one hour scan", "value": "remained constant"}, {"measurement": "tumor uptake of tracer after pre-injection of non-labeled Compound 4", "setting": "A431 tumor [3]; non-labeled Compound 4 given 10 minutes before tracer, same rats 2 days later", "value": "blocked"}, {"measurement": "total activity uptake in tumor when administered alone as compared with uptake after pre-injecting non-labeled compound", "setting": "A431 tumor [3]; time activity curves of the tumor region (FIG. 10)", "value": "doubled"}]}]}
